Like-named read-outs stand apart in the source and are kept apart here. Each block holds one molecule with its values, some of them ahead of it. Residues, ends and D or L forms follow the SMILES beside them. *: point of attachment. Biotin = O=C1N[C@H]2[C@H](CS[C@H]2CCCCC(=O)*)N1
Tests used:
[1] = test system: untransfected HEK239 cells; assay: Cellular uptake of target in untransfected HEK293 cells (Example 22); format: cell-based; settings: HEK293 cells without sortilin, 3 h, 2 nM to 2 μM, corresponding targets
[2] = molecular target: T1, soluble ectodomain of sortilin-6his (Homo sapiens, UniProt Q99523, V650M); assay: MST binding to soluble ectodomain of sortilin-6his
T1 construct: the soluble ectodomain of sortilin-6his is measured by microscale thermophoresis (MST)

[3] = test system: HEK293 cells expressing full length sortilin receptor; assay: Cellular uptake of AlexaFluor488-anti-DNP antibody; format: cell-based; settings: Table 7; AlexaFluor488-anti-DNP antibody (100 nM), 3 h, DNP warhead compounds
Description: In this example, the small molecule degraders consist of a sortilin binder linked to warhead DNP to target anti-DNP antibodies (BF001 to BF016)
Cellular uptake of AlexaFluor488-anti-DNP antibody (Thermo Fisher) was investigated in HEK293 cells expressing full length sortilin receptor in a methodology analogous to example 3.

HEK293/sortilin cells [4] = assay: Remaining TNFalpha in conditioned media (ELISA); format: cell-based; settings: after 72 h, 20 nM TNFalpha; added TNFalpha (100%) subtracted remaining TNFalpha (%)
Protocol: In different experiments, HEK293/sortilin cells were incubated with compound gradient series and 20 nM TNFalpha for up to 72 h. Following incubation, remaining TNFalpha in conditioned media was evaluated using human TNF-alpha Quantikine ELISA Kit (R&D systems, DTA00D).

[5] = test system: HEK293 cells expressing full length sortilin receptor; assay: Cellular uptake of NA650 in HEK293/sortilin cells; format: cell-based; settings: 3 h incubation, 9.8 nM to 10 μM, NA650 100 nM
In short: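 HEK293 cells stably expressing full-length sortilin, seeded overnight, were exposed for 3 h at 37° C. in DMEM/10% FBS to NA650 (100 nM) with peptidic bifunctional compounds (9.8 nM to 10 μM). After dPBS washes, cell-associated DyLight650 fluorescence was read on a plate reader.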

[6] = molecular target: streptavidin, bifunctional compound and sortilin-6his (UniProt P22629+Q99523, V650M); assay: TR-FRET ternary complex formation streptavidin / bifunctional peptide / sortilin-6his; settings: Table 2; […] incubation, HTRF ratio 665/620 nm
HEK293/sortilin cells [7] = assay: Depletion of NA650 from cell culture supernatant; format: cell-based; settings: for reduction in NA650 signal in cell culture supernatant: single addition, NA650 100 nM
Protocol: HEK293/sortilin cells were cultured in culture media containing DMEM (Lonza) further supplemented with 10% fetal bovine serum (Sigma), 1% GlutaMax Supplement (Gibco), penicillin-streptomycin (Thermo Fischer) and selection antibiotics 100 μg/mL Zeocin (Invitrogen). 35k cells/well were seeded in poly-L-lysine coated 96-well plates (Perkin Elmer) and allowed to incubate for 16-24 h in cell incubator (37° C., humidified, 5% CO2). Culture media were discarded, and the cells were washed with assay medium containing FluoroBright DMEM (Gibco) supplemented with 10% fetal bovine serum (Sigma) and 1% GlutaMax Supplement (Gibco). The media were discarded and replaced with assay media or assay medium containing 100 nM NA650 (Invitrogen). For wells evaluating the bifunctional compounds, the assay medium also contained concentrations ranging from 20 nM to 5 μM. After an incubation period of up to 72 h in the cell incubator the media were harvested and the presence of NA650 were evaluated by fluorescence intensity (FI) measurements of DyLight650 using a fluorescence plate reader (BMG Labtech Clariostar).
HEK293/sortilin cells (35k cells/96-well) were seeded in culture media (as described in Example 3) and incubated for 24 h in cell incubator. Culture media were discarded, and the cells were washed with assay medium containing FluoroBright DMEM (Gibco) and supplements as described in Example 3, before incubation in assay medium containing 100 nM NA650 and small molecule bifunctional compounds (20 nM to 5 μM). After an incubation period of up to 72 h, the media were harvested and the presence of NA650 were evaluated by FI measurements of DyLight650 using a fluorescence plate reader (BMG Labtech Clariostar).

HEK293/sortilin cells [8] = assay: Lysosomal sorting and degradation of NA650 (microscopy, blotted lysates, leupeptin); format: cell-based; settings: 2 h incubation, bifunctional molecule 300 nM, NA650 100 nM, anti-LAMP1 staining
Protocol: Cellular uptake of target NA650 was analyzed with fluorescence microscopy. For this assay, coverslips in 4 well plates were coated with poly-L lysine prior to seeding of HEK293/sortilin cells (25K cells/coverslip) in culture media (as described in Example 3)) and incubated overnight in cell incubator (37° C., humidified, 5% CO2). The culture media was replaced with assay media (as described in Example 3) containing NA650 (Invitrogen) (500 nM) (Thermo Fischer), a compound according to SEQ ID NO.: 147 (2 μM) and AF38469 (100 μM, MedChemExpress). The cells were incubated in a cell incubator for 4 hours before washing in dPBS (Bionordika) followed by fixation with dPBS+4% PFA (Sigma Aldrich) for 15 minutes. […] The fluorescent signal was analyzed using a laser scanning confocal microscope (LSM-800). […]
Culture medium was replaced with assay medium (DMEM (Lonza), 10% fetal bovine serum (Sigma Aldrich), 1% penicillin-streptomycin (Sigma Aldrich), 1% GlutaMAX (Gibco)) with or without NA650 (Invitrogen) (100 nM) (Thermo Fischer), peptidic bifunctional compound (300 nM) and leupeptin (80 μM) (Sigma Aldrich). […] Proteins were blotted onto a nitrocellulose membrane (Thermo Fisher), and the DyLight650 signal was detected using an iBright 1500 (Thermo Fisher). […]

[9] = molecular target: Sortilin-6His (Homo sapiens (Human)) (UniProt Q99523); assay: MST on labelled sortilin-6his ectodomain; KD score: +++ <25 nM, ++ 25-250 nM, + 250-2500 nM, 0 >2500 nM
Sortilin-6His [10] = molecular target: T2, Sortilin-6His (Homo sapiens (Human), UniProt Q99523 78-755); assay: TR-FRET (HTRF) ternary complex streptavidin-d2 / biotin-peptide / sortilin-6His; AUC score: + <5000, ++ >5000
T2 construct: In MST it was labelled non-covalently with RED-tris-NTA; also called soluble ectodomain of sortilin-6his; fluorescent sortilin-6his

Sortilin-6His [11] = molecular target: T2, Sortilin-6His; assay: MST, fluorescent sortilin-6his (100 nM), peptide titrated
Sortilin-6His [12] = molecular target: T2, Sortilin-6His; assay: MST on labelled sortilin-6his ectodomain; KD score: ++ <100 nM, + 100-2000 nM
Sortilin-6His [13] = molecular target: T2, Sortilin-6His; assay: MST on labelled sortilin-6his ectodomain

T2 sequence (Q99523 78-755 V650M limits assumed): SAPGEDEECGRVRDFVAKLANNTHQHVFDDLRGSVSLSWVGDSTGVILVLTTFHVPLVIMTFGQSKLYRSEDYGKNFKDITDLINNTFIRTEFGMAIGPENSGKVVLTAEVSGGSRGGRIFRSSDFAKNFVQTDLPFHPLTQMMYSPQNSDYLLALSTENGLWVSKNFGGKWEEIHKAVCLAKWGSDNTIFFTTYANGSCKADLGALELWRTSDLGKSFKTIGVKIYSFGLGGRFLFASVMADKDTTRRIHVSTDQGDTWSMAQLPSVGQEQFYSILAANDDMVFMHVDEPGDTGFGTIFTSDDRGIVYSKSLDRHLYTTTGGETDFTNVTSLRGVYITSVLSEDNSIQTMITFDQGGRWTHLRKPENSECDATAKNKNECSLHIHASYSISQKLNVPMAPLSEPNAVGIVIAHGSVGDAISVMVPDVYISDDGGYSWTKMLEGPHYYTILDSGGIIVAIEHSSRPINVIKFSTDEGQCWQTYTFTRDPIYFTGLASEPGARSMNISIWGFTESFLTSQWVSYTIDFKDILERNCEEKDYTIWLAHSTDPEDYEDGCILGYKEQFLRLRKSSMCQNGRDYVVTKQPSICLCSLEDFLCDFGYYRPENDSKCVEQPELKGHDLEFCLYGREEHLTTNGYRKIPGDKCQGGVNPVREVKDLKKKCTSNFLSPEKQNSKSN
T1 sequence (Q99523 with tags, fused parts or gaps V650M): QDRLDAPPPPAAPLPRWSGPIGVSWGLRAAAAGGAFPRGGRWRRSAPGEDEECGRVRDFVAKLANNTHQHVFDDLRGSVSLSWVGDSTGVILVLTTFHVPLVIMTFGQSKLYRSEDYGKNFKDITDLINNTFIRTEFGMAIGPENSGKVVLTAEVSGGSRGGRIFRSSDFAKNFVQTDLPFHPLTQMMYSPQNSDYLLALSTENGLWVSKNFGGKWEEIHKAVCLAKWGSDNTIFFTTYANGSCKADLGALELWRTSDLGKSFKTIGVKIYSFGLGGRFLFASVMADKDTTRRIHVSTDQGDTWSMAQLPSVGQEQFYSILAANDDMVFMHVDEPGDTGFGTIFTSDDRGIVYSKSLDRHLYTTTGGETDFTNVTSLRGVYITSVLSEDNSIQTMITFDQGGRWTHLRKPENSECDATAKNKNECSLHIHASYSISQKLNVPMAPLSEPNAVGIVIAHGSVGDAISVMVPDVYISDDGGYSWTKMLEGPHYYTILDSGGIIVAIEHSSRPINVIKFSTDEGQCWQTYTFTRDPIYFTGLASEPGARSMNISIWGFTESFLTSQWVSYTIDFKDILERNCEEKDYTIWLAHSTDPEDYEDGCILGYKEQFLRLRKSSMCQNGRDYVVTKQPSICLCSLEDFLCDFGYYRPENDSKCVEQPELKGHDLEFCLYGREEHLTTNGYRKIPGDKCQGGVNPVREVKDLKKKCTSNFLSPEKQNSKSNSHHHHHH
Sortilin-6His (Homo sapiens (Human)), sequence (Q99523 78-755 V650M limits assumed): as the sequence (Q99523 78-755 V650M limits assumed) above

Molecule: CC(C)(C)CC[C@H](NC(=O)c1ccc(Oc2cccc3c(C(=O)NCCCNC(=O)CCOCCOCCOCCNc4ccc([N+](=O)[O-])cc4[N+](=O)[O-])cccc23)nc1)C(=O)O [BF005, (2S)-2-[[6-[5-[3-[3-[2-[2-[2-(2,4-dinitroanilino)ethoxy]ethoxy]ethoxy]propanoylamino]propylcarbamoyl]-1-naphthyl]oxy]pyridine-3-carbonyllamino]-5,5-dimethyl-hexanoic acid]
cell associated FI response to increasing degrader concentration [1]: No response
Kd [2]: 1 to 10 nM
AUC score, target internalization [3]: ++ (AUC > 10.000)

Kd ([2]; Table 4, small molecule bifunctional compounds, MST, read-out: KD score, binding to sortilin (Kd)): < 1 nM
Molecule: C[C@@H]1CN(c2ncc(-c3ccc4c(n3)N(Cc3cccnc3C#N)C(C)(C)C4=O)cn2)CCN1C(=O)CNC(=O)CCCCCCCCCNC(=O)c1cccc(Oc2ccc(C(=O)N[C@@H](CCC(C)(C)C)C(=O)O)cn2)c1 [BF043, (2S)-2-[[6-[3-[[10-[[2-[(2R)-4-[5-[1-[(2-cyano-3-pyridyl)methyl]-2,2-dimethyl-3-oxo-pyrrolo[2,3-b]pyridin-6-yl]pyrimidin-2-yl]-2-methyl-piperazin-1-yl]-2-oxo-ethyl]amino]-10-oxo-decyl]carbamoyl]phenoxy]pyridine-3-carbonyl]amino]-5,5-dimethyl-hexanoic acid]
Maximum clearance rates of TNFalpha from conditioned media (HEK293/sortilin cells [4]): 63.3%

Molecule: CC(C)C[C@H](NC(=O)[C@H](CC(C)C)NC(=O)[C@H](CCC(N)=O)NC(=O)[C@H](CCCNC(=N)N)NC(=O)CNC(=O)CNC(=O)[C@H](CO)NC(=O)CNC(=O)CNC(=O)CNC(=O)CNC(=O)[C@H](CO)NC(=O)CNC(=O)CNC(=O)CNC(=O)CNC(=O)[C@H](CO)NC(=O)CNC(=O)CNC(=O)CCCC[C@@H]1SC[C@@H]2NC(=O)N[C@@H]21)C(=O)O [SEQ ID NO.: 147] (Biotin-GGSGGGGSGGGGSGGRQLL-OH)
cell associated FI signal, response to concentration series (in words) [5]: bell-shaped response
AUC score, TR-FRET measurements of ternary complex formation [6]: ++ (AUC > 5000)
reduction in NA650 signal in cell culture supernatant (HEK293/sortilin cells [7]; after 24 h): 16%
reduction in NA650 signal in cell culture supernatant (HEK293/sortilin cells [7]; after 48 h): 46%
reduction in NA650 signal in cell culture supernatant (HEK293/sortilin cells [7]; after 72 h): 61%
degrader concentration of highest uptake of target (HEK293/sortilin cells [7]; all timepoints (24, 48, 72 h)): 312 nM
Kd ([2]; Table 1, biotin-linker-peptide bifunctional compounds, MST, read-out: KD score, binding to sortilin (Kd)): 100 to 2000 nM
subcellular localization of internalized NA650 (fluorescence microscopy) (HEK293/sortilin cells [8]): co-localizes with lysosomal marker

KD [9]: 25 to 250 nM
Molecule: H-LQLL-OH (as printed in Table 3 for SEQ ID NO.: 30) (peptide)

AUC of TR-FRET (HTRF ratio vs compound concentration) for ternary complex formation (Sortilin-6His [10]): > 5000 auc
Kd (Sortilin-6His [11]): 703 nM
KD (Sortilin-6His [12]): 100 to 2000 nM
B1: Biotin-GGSGGGGSGGGGSGGRQLL-OH (peptide)
peptide: Biotin-GGSGGGGSGGGGSGGRQLL-OH
SMILES: CC(C)C[C@H](NC(=O)[C@H](CC(C)C)NC(=O)[C@H](CCC(N)=O)NC(=O)[C@H](CCCNC(=N)N)NC(=O)CNC(=O)CNC(=O)[C@H](CO)NC(=O)CNC(=O)CNC(=O)CNC(=O)CNC(=O)[C@H](CO)NC(=O)CNC(=O)CNC(=O)CNC(=O)CNC(=O)[C@H](CO)NC(=O)CNC(=O)CNC(=O)CCCC[C@@H]1SC[C@@H]2NC(=O)N[C@@H]21)C(=O)O
notes: also called degrader

binding result (Sortilin-6His [13]): no binding
B2: Biotin-GGSGGGGSGGGGSGG-OH (peptide)
peptide: Biotin-GGSGGGGSGGGGSGG-OH
SMILES: O=C(O)CNC(=O)CNC(=O)[C@H](CO)NC(=O)CNC(=O)CNC(=O)CNC(=O)CNC(=O)[C@H](CO)NC(=O)CNC(=O)CNC(=O)CNC(=O)CNC(=O)[C@H](CO)NC(=O)CNC(=O)CNC(=O)CCCC[C@@H]1SC[C@@H]2NC(=O)N[C@@H]21
